In brackets after ≈: the same amount, converted by molar mass.
Experiments:
[1] = tested on: Candida parapsilosis (ATCC RCMB 05064); test: Antifungal microdilution assay, MIC against Candida parapsilosis; assay type: cell-based; details: Lodderomyces parapsilosis, RCMB05064, 0.49-125 μg/mL tested over 48 h, read-out: Minimum inhibitory concentration C. parapsilosis
Method: (§1) The calculation of the minimum inhibitory concentrations (MICs) for the tested compounds was done against Candida parapsilosis (ATCC RCMB 05064); Candida albicans (ATCC RCMB 05064): Candida tropicalis (ATCC RCMB 05064); Aspergillus niger (ATCC RCMB 05064); Trichophyton rubrum (ATCC RCMB 05064). Microdilution assay was used to evaluate the tested compounds (2, 2a-2h) for their antifungal activity (Anaissie, E. J.; Paetznick, V. L.; Ensign, L. G.; Espinel-Ingroff, A.; Galgiani, J. N.; Hitchcock, C. A.; LaRocco. M.; Patterson. T.; Pfaller, M. A.; Rex, J. H.; et al. Microdilution antifungal susceptibility testing of Candida albicans and Cryptococcus neoformans with and without agitation: An eight-center collaborative study. Antimicrob. Agents Chemother. 1996, 40, 2387-2391). Different concentrations were tested from each compound; 0.49, 0.98, 1.95, 3.9, 7.81, 15.63, 31.25, 62.5, and 125 μg/mL over 48 h.
(§2) The observed antifungal activity of the present 4-amino-5-(4-fluoro-3-phenoxyphenyl)-4H-1,2,4-triazole-3-thiol (2) and its derivatives (2a-h) against various fungi are summarized below in Table 2.

[2] = tested on: Candida albicans (ATCC RCMB 05064); test: Antifungal microdilution assay, MIC against Candida albicans; assay type: cell-based; details: RCMB05064, 0.49-125 μg/mL tested over 48 h, read-out: Minimum inhibitory concentration C. albicans
Method: as §1, §2

[3] = tested on: Candida tropicalis (ATCC RCMB 05064); test: Antifungal microdilution assay, MIC against Candida tropicalis; assay type: cell-based; details: RCMB05064, 0.49-125 μg/mL tested over 48 h, read-out: Minimum inhibitory concentration C. tropicalis
Method: as §1, §2

[4] = tested on: Aspergillus niger (ATCC RCMB 05064); test: Antifungal microdilution assay, MIC against Aspergillus niger; assay type: cell-based; details: RCMB05064, 0.49-125 μg/mL tested over 48 h, read-out: Minimum inhibitory concentration A. niger
Method: as §1, §2

[5] = tested on: Trichophyton rubrum (ATCC RCMB 05064); test: Antifungal microdilution assay, MIC against Trichophyton rubrum; assay type: cell-based; details: RCMB05064, 0.49-125 μg/mL tested over 48 h, read-out: Minimum inhibitory concentration T. rubrum
Method: as §1, §2

Row | Compound | MIC [1] [µg/mL] | MIC [2] [µg/mL] | MIC [3] [µg/mL] | MIC [4] [µg/mL] | MIC [5] [µg/mL] | melting point [°C]
1 | Fc1ccc(/C=N/n2c(-c3ccc(F)c(Oc4ccccc4)c3)n[nH]c2=S)cc1 [Compound 2d] | 7.81 (≈ 19.1 µM) | 7.81 (≈ 19.1 µM) | 15.6 (≈ 38.3 µM) | 7.81 (≈ 19.1 µM) | 15.6 (≈ 38.3 µM) | 172
2 | Nn1c(S)nnc1-c1ccc(F)c(Oc2ccccc2)c1 [Compound 2, 4-amino-5-(4-fluoro-3-phenoxyphenyl)-4H-1,2,4-triazole-3-thiol] | 1.95 (≈ 6.45 µM) | 3.9 (≈ 12.9 µM) | 3.9 (≈ 12.9 µM) | 7.81 (≈ 25.8 µM) | 3.9 (≈ 12.9 µM) | 205 to 207
3 | CSc1nnc(-c2ccc(F)c(Oc3ccccc3)c2)n1N [Compound 2f, 3-(4-Fluoro-3-phenoxyphenyl)-5-(methylthio)-4H-1,2,4-triazol-4-amine] | 3.9 (≈ 12.3 µM) | 7.81 (≈ 24.7 µM) | 7.81 (≈ 24.7 µM) | 3.9 (≈ 12.3 µM) | 7.81 (≈ 24.7 µM) | 152
4 | Fc1ccc(-c2n[nH]c(=S)n2/N=C/c2cccc(Oc3ccccc3)c2)cc1Oc1ccccc1 [Compound 2e] | 1.95 (≈ 4.04 µM) | 1.95 (≈ 4.04 µM) | 1.95 (≈ 4.04 µM) | 3.9 (≈ 8.08 µM) | 7.81 (≈ 16.2 µM) | 132
5 | Fc1ccc(-c2n[nH]c(=S)n2/N=C/c2ccc(Cl)cc2)cc1Oc1ccccc1 [Compound 2b] | 15.6 (≈ 36.8 µM) | 31.2 (≈ 73.5 µM) | 62.5 (≈ 147 µM) | 31.2 (≈ 73.5 µM) | 62.5 (≈ 147 µM) | 174
6 | Fc1ccc(-c2nn(CN3CCOCC3)c(=S)n2/N=C/c2ccc(Cl)cc2)cc1Oc1ccccc1 [Compound 2c] | 15.6 (≈ 29.8 µM) | 15.6 (≈ 29.8 µM) | 32.2 (≈ 61.5 µM) | 15.6 (≈ 29.8 µM) | 32.2 (≈ 61.5 µM) | 146

Now those with a lower MIC [1], led by results:

Row | MIC [1] [µg/mL] | MIC [2] [µg/mL] | MIC [3] [µg/mL] | MIC [4] [µg/mL] | MIC [5] [µg/mL] | melting point [°C] | Compound
7 | 0.49 (≈ 1.13 µM) | 0.49 (≈ 1.13 µM) | 0.49 (≈ 1.13 µM) | 0.98 (≈ 2.26 µM) | 0.98 (≈ 2.26 µM) | 136 | Nn1c(SCc2cnc(Cl)s2)nnc1-c1ccc(F)c(Oc2ccccc2)c1 [Compound 2g, 3-(((2-Chlorothiazol-5-yl)methyl)thio)-5-(4-fluoro-3-phenoxyphenyl)-4H-1,2,4-triazol-4-amine]
8 | 0.49 (≈ 1.6 µM) | 0.49 (≈ 1.6 µM) | 0.98 (≈ 3.2 µM) | 0.49 (≈ 1.6 µM) | 1.95 (≈ 6.37 µM) |  | OC(Cn1cncn1)(Cn1cncn1)c1ccc(F)cc1F [Fluconazole, reference compound]
9 | 0.49 (≈ 1.43 µM) | 0.98 (≈ 2.86 µM) | 0.49 (≈ 1.43 µM) | 0.98 (≈ 2.86 µM) | 1.95 (≈ 5.7 µM) | 128 | C=CCSc1nnc(-c2ccc(F)c(Oc3ccccc3)c2)n1N [Compound 2h, 3-(Allylthio)-5-(4-fluoro-3-phenoxyphenyl)-4H-1,2,4-triazol-4-amine]
10 | 0.98 (≈ 2.51 µM) | 1.95 (≈ 4.99 µM) | 0.98 (≈ 2.51 µM) | 1.95 (≈ 4.99 µM) | 1.95 (≈ 4.99 µM) | 189 | Fc1ccc(-c2n[nH]c(=S)n2/N=C/c2ccccc2)cc1Oc1ccccc1 [Compound 2a]
